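Each compound was tested at five concentrations against cells in 96-well plates for 48 hours. TGI marks complete inhibition of growth.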
How the values were obtained:
Experiment in all cases: DTP human tumour cell line panel, 48 h
786-0 renal = test system: 786-0 renal
A498 renal = test system: A498 renal
A549 NSCLC = test system: A549 NSCLC
ACHN renal = test system: ACHN renal
CAKI-1 renal = test system: CAKI-1 renal
CCRF-CEM leukemia = test system: CCRF-CEM leukemia
COLO 205 colon = test system: COLO 205 colon
DLD-1 colon = test system: DLD-1 colon
DMS 114 small cell lung = test system: DMS 114 small cell lung
DMS 273 small cell lung = test system: DMS 273 small cell lung
EKVX NSCLC = test system: EKVX NSCLC
HCC-2998 colon = test system: HCC-2998 colon
HCT-116 colon = test system: HCT-116 colon
HCT-15 colon = test system: HCT-15 colon
HL-60(TB) leukemia = test system: HL-60(TB) leukemia
HOP-18 NSCLC = test system: HOP-18 NSCLC
HOP-62 NSCLC = test system: HOP-62 NSCLC
HOP-92 NSCLC = test system: HOP-92 NSCLC
HT29 colon = test system: HT29 colon
IGROV1 ovarian = test system: IGROV1 ovarian
K-562 leukemia = test system: K-562 leukemia
KM12 colon = test system: KM12 colon
KM20L2 colon = test system: KM20L2 colon
LOX IMVI melanoma = test system: LOX IMVI melanoma
LXFL 529 NSCLC = test system: LXFL 529 NSCLC
M14 melanoma = test system: M14 melanoma
M19-MEL melanoma = test system: M19-MEL melanoma
MALME-3M melanoma = test system: MALME-3M melanoma
MOLT-4 leukemia = test system: MOLT-4 leukemia
NCI-H226 lung = test system: NCI-H226 lung
NCI-H23 lung = test system: NCI-H23 lung
NCI-H460 lung = test system: NCI-H460 lung
NCI-H522 lung = test system: NCI-H522 lung
OVCAR-3 ovarian = test system: OVCAR-3 ovarian
OVCAR-4 ovarian = test system: OVCAR-4 ovarian
OVCAR-5 ovarian = test system: OVCAR-5 ovarian
OVCAR-8 ovarian = test system: OVCAR-8 ovarian
RPMI-8226 leukemia = test system: RPMI-8226 leukemia
RXF 393 renal = test system: RXF 393 renal
SF-268 CNS = test system: SF-268 CNS
SF-295 CNS = test system: SF-295 CNS
SF-539 CNS = test system: SF-539 CNS
SK-MEL-2 melanoma = test system: SK-MEL-2 melanoma
SK-MEL-28 melanoma = test system: SK-MEL-28 melanoma
SK-MEL-5 melanoma = test system: SK-MEL-5 melanoma
SK-OV-3 ovarian = test system: SK-OV-3 ovarian
SN12C renal = test system: SN12C renal
SNB-19 CNS = test system: SNB-19 CNS
SNB-75 CNS = test system: SNB-75 CNS
SR leukemia = test system: SR leukemia
SW-620 colon = test system: SW-620 colon
TK-10 renal = test system: TK-10 renal
U251 CNS = test system: U251 CNS
UACC-257 melanoma = test system: UACC-257 melanoma
UACC-62 melanoma = test system: UACC-62 melanoma
UO-31 renal = test system: UO-31 renal
XF 498 CNS = test system: XF 498 CNS
SNB-78 CNS = test system: SNB-78 CNS

## O=C(CC(=O)n1nc(-c2ccccc2)c(N=Nc2ccccc2Cl)c1-c1ccccc1)Nc1ccc(Cl)cc1
786-0 renal
  TGI: > 83.4 µM
A498 renal
  TGI: > 100 µM
A549 NSCLC
  TGI: > 79.8 µM
ACHN renal
  TGI: > 100 µM
CAKI-1 renal
  TGI: > 100 µM
CCRF-CEM leukemia
  TGI: > 68.5 µM
COLO 205 colon
  TGI: > 64 µM
DLD-1 colon
  TGI: > 65.2 µM
DMS 114 small cell lung
  TGI: > 56.6 µM
DMS 273 small cell lung
  TGI: > 100 µM
EKVX NSCLC
  TGI: > 100 µM
HCC-2998 colon
  TGI: > 100 µM
HCT-116 colon
  TGI: > 55.8 µM
HCT-15 colon
  TGI: > 59.9 µM
HL-60(TB) leukemia
  TGI: > 60.5 µM
HOP-18 NSCLC
  TGI: > 100 µM
HOP-62 NSCLC
  TGI: > 100 µM
HOP-92 NSCLC
  TGI: > 100 µM
HT29 colon
  TGI: > 89.5 µM
IGROV1 ovarian
  TGI: > 100 µM
K-562 leukemia
  TGI: > 85.8 µM
KM12 colon
  TGI: > 100 µM
KM20L2 colon
  TGI: > 100 µM
LOX IMVI melanoma
  TGI: > 59.7 µM
LXFL 529 NSCLC
  TGI: > 100 µM
M14 melanoma
  TGI: > 100 µM
M19-MEL melanoma
  TGI: 45.7 µM
MALME-3M melanoma
  TGI: > 100 µM
MOLT-4 leukemia
  TGI: > 100 µM
NCI-H226 lung
  TGI: > 100 µM
NCI-H23 lung
  TGI: > 100 µM
NCI-H460 lung
  TGI: > 78.2 µM
NCI-H522 lung
  TGI: > 100 µM
OVCAR-3 ovarian
  TGI: > 100 µM
OVCAR-4 ovarian
  TGI: > 100 µM
OVCAR-5 ovarian
  TGI: > 100 µM
OVCAR-8 ovarian
  TGI: > 100 µM
RPMI-8226 leukemia
  TGI: > 66.1 µM
RXF 393 renal
  TGI: > 100 µM
SF-268 CNS
  TGI: > 100 µM
SF-295 CNS
  TGI: > 100 µM
SF-539 CNS
  TGI: > 100 µM
SK-MEL-2 melanoma
  TGI: > 100 µM
SK-MEL-28 melanoma
  TGI: > 100 µM
SK-MEL-5 melanoma
  TGI: > 100 µM
SK-OV-3 ovarian
  TGI: > 100 µM
SN12C renal
  TGI: > 100 µM
SNB-19 CNS
  TGI: > 100 µM
SNB-75 CNS
  TGI: > 100 µM
SR leukemia
  TGI: > 100 µM
SW-620 colon
  TGI: > 74 µM
TK-10 renal
  TGI: > 100 µM
U251 CNS
  TGI: > 55.6 µM
UACC-257 melanoma
  TGI: > 100 µM
UACC-62 melanoma
  TGI: > 100 µM
UO-31 renal
  TGI: > 100 µM
XF 498 CNS
  TGI: > 100 µM

## NC(CCC(=O)Nc1ccc(O)cc1)C(=O)O (configuration not stated)
786-0 renal
  TGI: > 100 µM
A498 renal
  TGI: > 100 µM
A549 NSCLC
  TGI: > 100 µM
ACHN renal
  TGI: > 100 µM
CAKI-1 renal
  TGI: > 100 µM
CCRF-CEM leukemia
  TGI: > 100 µM
COLO 205 colon
  TGI: > 100 µM
DLD-1 colon
  TGI: > 100 µM
DMS 114 small cell lung
  TGI: > 100 µM
DMS 273 small cell lung
  TGI: > 100 µM
EKVX NSCLC
  TGI: > 100 µM
HCT-116 colon
  TGI: > 100 µM
HCT-15 colon
  TGI: > 100 µM
HL-60(TB) leukemia
  TGI: > 100 µM
HOP-18 NSCLC
  TGI: > 100 µM
HOP-62 NSCLC
  TGI: > 100 µM
HOP-92 NSCLC
  TGI: > 100 µM
HT29 colon
  TGI: > 100 µM
K-562 leukemia
  TGI: > 100 µM
KM12 colon
  TGI: > 100 µM
KM20L2 colon
  TGI: > 100 µM
LOX IMVI melanoma
  TGI: > 100 µM
LXFL 529 NSCLC
  TGI: > 100 µM
M14 melanoma
  TGI: > 100 µM
MALME-3M melanoma
  TGI: > 100 µM
MOLT-4 leukemia
  TGI: > 100 µM
NCI-H226 lung
  TGI: > 100 µM
NCI-H460 lung
  TGI: > 100 µM
NCI-H522 lung
  TGI: > 100 µM
OVCAR-3 ovarian
  TGI: > 100 µM
OVCAR-4 ovarian
  TGI: > 100 µM
OVCAR-5 ovarian
  TGI: > 100 µM
OVCAR-8 ovarian
  TGI: > 100 µM
RPMI-8226 leukemia
  TGI: > 100 µM
RXF 393 renal
  TGI: > 100 µM
SF-268 CNS
  TGI: > 100 µM
SK-MEL-2 melanoma
  TGI: > 100 µM
SK-MEL-28 melanoma
  TGI: > 100 µM
SK-MEL-5 melanoma
  TGI: > 100 µM
SK-OV-3 ovarian
  TGI: > 100 µM
SN12C renal
  TGI: > 100 µM
SNB-19 CNS
  TGI: > 100 µM
SNB-75 CNS
  TGI: > 100 µM
SNB-78 CNS
  TGI: > 100 µM
SR leukemia
  TGI: > 100 µM
SW-620 colon
  TGI: > 100 µM
TK-10 renal
  TGI: > 100 µM
U251 CNS
  TGI: > 100 µM
UACC-257 melanoma
  TGI: > 100 µM
UACC-62 melanoma
  TGI: > 100 µM
UO-31 renal
  TGI: > 100 µM
XF 498 CNS
  TGI: > 100 µM

## Cc1cn(C2CC(OC3CCCCO3)C(CO)O2)c(=O)[nH]c1=O (configuration not stated)
786-0 renal
  TGI: > 100 µM
A498 renal
  TGI: > 100 µM
A549 NSCLC
  TGI: > 100 µM
ACHN renal
  TGI: > 100 µM
CCRF-CEM leukemia
  TGI: > 100 µM
COLO 205 colon
  TGI: > 100 µM
DLD-1 colon
  TGI: > 100 µM
DMS 273 small cell lung
  TGI: > 100 µM
EKVX NSCLC
  TGI: > 100 µM
HCC-2998 colon
  TGI: > 100 µM
HCT-116 colon
  TGI: > 100 µM
HCT-15 colon
  TGI: > 100 µM
HL-60(TB) leukemia
  TGI: > 100 µM
HOP-18 NSCLC
  TGI: > 100 µM
HOP-62 NSCLC
  TGI: > 100 µM
HOP-92 NSCLC
  TGI: > 100 µM
HT29 colon
  TGI: > 100 µM
IGROV1 ovarian
  TGI: > 100 µM
K-562 leukemia
  TGI: > 100 µM
KM12 colon
  TGI: > 100 µM
KM20L2 colon
  TGI: > 100 µM
LOX IMVI melanoma
  TGI: > 100 µM
LXFL 529 NSCLC
  TGI: > 100 µM
M14 melanoma
  TGI: > 100 µM
M19-MEL melanoma
  TGI: > 100 µM
MALME-3M melanoma
  TGI: > 100 µM
MOLT-4 leukemia
  TGI: > 100 µM
NCI-H226 lung
  TGI: > 100 µM
NCI-H23 lung
  TGI: > 100 µM
NCI-H460 lung
  TGI: > 100 µM
NCI-H522 lung
  TGI: > 100 µM
OVCAR-3 ovarian
  TGI: > 100 µM
OVCAR-4 ovarian
  TGI: > 100 µM
OVCAR-5 ovarian
  TGI: > 100 µM
OVCAR-8 ovarian
  TGI: > 100 µM
RPMI-8226 leukemia
  TGI: > 100 µM
RXF 393 renal
  TGI: > 100 µM
SF-268 CNS
  TGI: > 100 µM
SF-295 CNS
  TGI: > 100 µM
SF-539 CNS
  TGI: > 100 µM
SK-MEL-2 melanoma
  TGI: > 100 µM
SK-MEL-28 melanoma
  TGI: > 100 µM
SK-OV-3 ovarian
  TGI: > 100 µM
SN12C renal
  TGI: > 100 µM
SNB-19 CNS
  TGI: > 100 µM
SNB-78 CNS
  TGI: > 100 µM
SR leukemia
  TGI: > 100 µM
SW-620 colon
  TGI: > 100 µM
TK-10 renal
  TGI: > 100 µM
U251 CNS
  TGI: > 100 µM
UACC-257 melanoma
  TGI: > 100 µM
UO-31 renal
  TGI: > 100 µM
XF 498 CNS
  TGI: > 100 µM

Reference: PubChem BioAssay (NCI)
